Measured values taken from paper PMC7496508, “Modular Medical Imaging Agents Based on Azide–Alkyne Huisgen Cycloadditions: Synthesis and Pre‐Clinical Evaluation of ^18F‐Labeled PSMA‐Tracers for Prostate Cancer Imaging” (Chemistry (Weinheim an Der Bergstrasse, Germany), 2020).
Several values for one entry are separate records, joined by “and”; a condition that tells them apart may be missing. Identical values can stand only once.

Key:
PC3 (PSMA-) xenografts [1] = assay: ex vivo organ distribution, PC3 xenograft mice; format: in vivo, Balb/c nude mice; settings: dissected after PET scan
Procedure: All groups were evaluated by visual assessment of the PET image and the percentage injected dose per gram (%ID g^−1).
(§1) The animal experiments were all performed according to the ethical guidelines and approved by the local animal welfare committee of the University of Groningen (IvD number 15166-06-001. All animals were caged separately in individually ventilated cages.
(§2) 7-12 week old immune deficient Balb/c nude mice were inoculated with 200 µL of a 1:1 suspension of medium containing approximately 4 x10^6 LNCaP cells (PSMA positive cells) or 5 x 10^6 PC3 cells (PSMA-negative cells) in RPMI-1640, and Matrigel Basement Membrane Matrix High concentration. The cells were subcutaneously inoculated on the right shoulder.
After 3 to 5 weeks for LNCaP-xenografts, 2-3 weeks for PC3-xenografts or when a tumor size of 1cm3 was reached, the animals were transported to the PET imaging facility. […]
Animals were anesthetized at 5 % isoflurane and maintained under 2 % isoflurane enriched with O2. The dynamic PET scan was started within 5 min after tracer injection with an acquisition time of 90 min. The static scan was performed 60 min after tracer injection with an acquisition time of 30 min.
7.2. Organ distribution and Metabolite analysis.
After sacrificing the animals, the organs were dissected and measured in a γ-counter. The obtained CPM’s were normalized to %ID/g (Table shown in main text). […]
(§3) In order to check for the significant differences, we also checked for the Cohen’s d, a measurement to determine the effect size. It is calculated on the following formula:
(§4) Cohen′sD = Mean1− Mean2 . […]

LNCaP (PSMA+) xenografts = assay: PET image quantification of organ distribution (SUVmeanBW), LNCaP xenograft mice; format: in vivo, Balb/c nude mice
Procedure: (§5) The in vivo imaging potential of [^18F]PSMA‐MIC01 was evaluated using a murine animal model (see Supporting Information for experimental details).65 This was performed in a procedure that involved the study of the tumor uptake, binding specificity and comparison to [^68Ga]PSMA‐11. Tumor uptake of [^18F]PSMA‐MIC01 was assessed by performing a 90 min dynamic PET scan.
as §1, §2
(§6) After 3 to 5 weeks for LNCaP-xenografts, 2-3 weeks for PC3-xenografts or when a tumor size of 1cm3 was reached, the animals were transported to the PET imaging facility. For the […]
(§7) prepared and 100 µL were injected via penile vein injection 30 min prior to the tracer injection. Animals were anesthetized at 5 % isoflurane and maintained under 2 % isoflurane enriched with O2. The dynamic PET scan was started within 5 min after tracer injection with an acquisition time of 90 min. The static scan was performed 60 min after tracer injection with an acquisition time of 30 min. […]
as §3, §4

PC3 (PSMA-) xenografts [2] = assay: PET image quantification of organ distribution (SUVmeanBW), PC3 xenograft mice; format: in vivo, Balb/c nude mice
Procedure: as §5, §1, §2, §6, §7, §3, §4

[3] = distribution coefficient logD, n-octanol/PBS; format: physicochemical
Procedure: page 19: Figure S3: HPLC purification of [18F]PSMA-MIC02 (A) and after 4 h (B). 5. Distribution coefficient LogD. […] cup. 100 µL of the formulated final solution of [18F]PSMA-MIC01 or [18F]PSMA-MIC02 was added and vortexed for 1 minute and centrifuged for 5 min at […]. The different layers were separated and 100 µL of each layer were measured on a γ-counter. Based on the counts per minute (CPM) of each fraction, the partition coefficient was measured with the following formula: log(CPMoctanol/CPMPBS). The obtained data are as followed. Table S2. Counts per minute (CPM) of the 3 indidicually measured triplicates of [18F]PSMA-MIC01 of n- octanol and PBS. Octanol (CPM) PBS (CPM) BLK (CPM) LogD Mean SD […] No 1.2 2823.43 2715328.33 93.59 -2.99 […] No 2.3 394.49 640463.84 93.59 -3.21 […] No 3.2 3690.69 2357291.58 50.84 -2.81 No 3.3 5848.38 3956671.48 52.31 -2.83 -3.01 0.22 18 (1 picture or pasted object on this page, not shown here)

[4] = LNCaP-blocked (PSMA+), 2-PMPA prior to tracer

O=C(O)CC[C@H](NC(=O)N[C@@H](CCCCNC(=O)c1ccc(-c2cn(CCOCCOCC[18F])nn2)cc1)C(=O)O)C(=O)O [[^18F]PSMA‐MIC01]
ex vivo uptake bone (PC3 (PSMA-) xenografts [1]): 0.5±0.2 %ID g^−1 | ex vivo uptake brain (PC3 (PSMA-) xenografts [1]): 0.2±0.1 %ID g^−1 | ex vivo uptake heart (PC3 (PSMA-) xenografts [1]): 1.0±0.6 %ID g^−1 | ex vivo uptake kidney (PC3 (PSMA-) xenografts [1]): 39.8±28.8 %ID g^−1 | ex vivo uptake large intestine (PC3 (PSMA-) xenografts [1]): 1.4±0.5 %ID g^−1 | ex vivo uptake liver (PC3 (PSMA-) xenografts [1]): 9.4±2.9 %ID g^−1 | ex vivo uptake lungs (PC3 (PSMA-) xenografts [1]): 2.1±1.1 %ID g^−1 | ex vivo uptake muscles (PC3 (PSMA-) xenografts [1]): 0.6±0.3 %ID g^−1 | ex vivo uptake pancreas (PC3 (PSMA-) xenografts [1]): 0.8±0.3 %ID g^−1 | ex vivo uptake plasma (PC3 (PSMA-) xenografts [1]): 6.0±3.5 %ID g^−1 | ex vivo uptake salivary glands (PC3 (PSMA-) xenografts [1]): 1.1±0.6 %ID g^−1 | ex vivo uptake small intestine (PC3 (PSMA-) xenografts [1]): 1.3±0.6 %ID g^−1 | ex vivo uptake spleen (PC3 (PSMA-) xenografts [1]): 3.1±1.4 %ID g^−1 | ex vivo uptake stomach (PC3 (PSMA-) xenografts [1]): 1.2±0.6 %ID g^−1 | ex vivo uptake tumor (PC3 (PSMA-) xenografts [1]): 3.0±1.8 %ID g^−1 and 3.0±1.7 %ID g^−1 | ex vivo uptake urine (PC3 (PSMA-) xenografts [1]): 184±260 %ID g^−1 | ex vivo uptake whole blood (PC3 (PSMA-) xenografts [1]): 3.4±1.8 %ID g^−1 | SUVmeanBW Bladder (LNCaP (PSMA+) xenografts; LNCaP (PSMA+) xenograft): 10.2 ± 6.7 | SUVmeanBW Brain (LNCaP (PSMA+) xenografts; LNCaP (PSMA+) xenograft): 0.2 ± 0.1 | SUVmeanBW Heart (LNCaP (PSMA+) xenografts; LNCaP (PSMA+) xenograft): 0.4 ± 0.2 | SUVmeanBW Kidney (LNCaP (PSMA+) xenografts; LNCaP (PSMA+) xenograft): 4.4 ± 1.4 | SUVmeanBW Liver (LNCaP (PSMA+) xenografts; LNCaP (PSMA+) xenograft): 0.8 ± 0.2 | SUVmeanBW Muscle (LNCaP (PSMA+) xenografts; LNCaP (PSMA+) xenograft): 0.2 ± 0.1 | SUVmeanBW Tumor (LNCaP (PSMA+) xenografts; LNCaP (PSMA+) xenograft): 0.6 ± 0.4 | SUVmeanBW Bladder (LNCaP (PSMA+) xenografts; [4]): 20.7 ± 12.4 | SUVmeanBW Brain (LNCaP (PSMA+) xenografts; [4]): 0.1 ± 0.0 | SUVmeanBW Heart (LNCaP (PSMA+) xenografts; [4]): 0.4 ± 0.1 | SUVmeanBW Kidney (LNCaP (PSMA+) xenografts; [4]): 2.6 ± 1.7 | SUVmeanBW Liver (LNCaP (PSMA+) xenografts; [4]): 0.8 ± 0.4 | SUVmeanBW Muscle (LNCaP (PSMA+) xenografts; [4]): 0.2 ± 0.1 | SUVmeanBW Tumor (LNCaP (PSMA+) xenografts; [4]): 0.3 ± 0.1 | SUVmeanBW Bladder (PC3 (PSMA-) xenografts [2]): 3.9 ± 0.4 | SUVmeanBW Brain (PC3 (PSMA-) xenografts [2]): 0.2 ± 0.1 | SUVmeanBW Heart (PC3 (PSMA-) xenografts [2]): 0.7 ± 0.2 | SUVmeanBW Kidney (PC3 (PSMA-) xenografts [2]): 5.1 ± 1.9 | SUVmeanBW Liver (PC3 (PSMA-) xenografts [2]): 1.5 ± 0.5 | SUVmeanBW Muscle (PC3 (PSMA-) xenografts [2]): 0.3 ± 0.1 | SUVmeanBW Tumor (PC3 (PSMA-) xenografts [2]): 0.4 ± 0.2 | LogD, individual measurements ([3]; n-octanol/PBS pH 7.4, single measurements): -3.03 and -2.99 and -3.02 and -3.27 and -3.20 and -3.21 and -2.72 and -2.81 and -2.83 | logD ([3]; n-octanol/PBS, pH 7.4, n-octanol/PBS pH 7.4, overall mean): -3.01 ± 0.22
